Results published in patent EP4624497A1, “PHOSPHOEN[…] PROBE, PREPARATION METHOD THEREFOR AND APPLICATION THEREOF” (priority 2022, dated 2024).

Key:
Experiment in all cases: phosphoenolpyruvate titration of purified optical probe (fluorescence ratio)
Format in all cases: binding
Conditions in all cases: phosphoenolpyruvate 0 to 10 mM, purified probe treated 10 minutes, ex 420/485 nm, em 528 nm
[1] = biological target: T1, Thermus thermophilus TtPFK optical probe 254/256-TtPFK-cpYFP variant, TtPFK L320F/I253Q/Q254L/G256V/G257L, cpYFP Y1T/N246F (Thermus thermophilus, UniProt P21777, form not given/G256V/G257L/I253Q/L320F/Q254L)
T1 construct: the numbering corresponds to the full length of the phosphoenolpyruvate-sensitive polypeptide; His-tag; made in house; host or cells: E. coli BL21 (DE3), pCDF vector
T1 sequence (P21777 other isoform, or with tags, fused parts or gaps, stated change not applied): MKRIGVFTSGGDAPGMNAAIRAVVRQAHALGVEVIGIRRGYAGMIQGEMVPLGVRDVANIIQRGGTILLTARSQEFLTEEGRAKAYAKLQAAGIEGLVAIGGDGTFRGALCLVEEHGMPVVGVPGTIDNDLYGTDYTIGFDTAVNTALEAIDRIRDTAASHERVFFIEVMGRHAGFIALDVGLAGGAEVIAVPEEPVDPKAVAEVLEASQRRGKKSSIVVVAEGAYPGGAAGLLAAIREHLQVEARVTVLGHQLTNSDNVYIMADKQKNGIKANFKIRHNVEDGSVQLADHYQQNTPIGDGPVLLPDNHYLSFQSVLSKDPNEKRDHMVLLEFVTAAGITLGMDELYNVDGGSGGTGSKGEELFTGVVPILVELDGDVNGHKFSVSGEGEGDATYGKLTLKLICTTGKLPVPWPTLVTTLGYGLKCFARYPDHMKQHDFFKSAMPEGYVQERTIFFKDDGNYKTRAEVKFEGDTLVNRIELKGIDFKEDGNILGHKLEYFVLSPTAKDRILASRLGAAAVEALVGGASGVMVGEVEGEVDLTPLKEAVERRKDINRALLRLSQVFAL
Procedure: (§1) • 1. The expression vectors (for example, a phosphoenolpyruvate optical probe expression vector based on pCDF.) were transformed into BL21 (DE3) cells, incubated inverted overnight, and the clones were picked from the plates into 250 mL Erlenmeyer flasks, placed in a shaker at 37 °C and incubated at 220 rpm to OD=0.4-0.8, then 1/1000 (V/V) of IPTG (1 M) was added to induce expression at 18 °C for 24-36 hours. • 2. Upon completion of inducible expression, cells were harvested by centrifugation at 4000 rpm for 30 min, resuspended in 50 mM phosphate buffer and disrupted ultrasonically until the broth were clear, centrifuged at 9600 rpm at 4 °C for 20 min. • 3. The centrifuged supernatant was used to obtain protein by purification through a self-packed nickel column affinity chromatography column, and the protein obtained after nickel column affinity chromatography was further used to obtain protein dissolved in 100 mM HEPES buffer (pH 7.4). • 4. After purified proteins were subjected to SDS-PAGE, probes were diluted to a protein solution having a final concentration of 0.2-5 µM using assay buffer (100 mm HEPES, 100 mM NaCl, pH 7.4). Phosphoenolpyruvate was formulated as a stock solution at a final concentration of 50 mM with the assay buffer (100 mM HEPES, 100 mM NaCl, pH 7.4). • 5. 100 µl 1 µM of protein solution was taken, incubated at 37 °C for 10 min, phosphoenolpyruvate was added for titration, and the fluorescence intensity of 528 nm emission after 420 nm and 485 nm fluorescence excitation of the protein was measured. The fluorescence excitation and emission determination of the samples were done using a multifunctional fluorescence microplate reader. • 6. 100 µl 1 µM of protein solution was taken, incubated at 37 °C for 10 min, and phosphoenolpyruvate was added to determine the absorption and fluorescence spectra of the proteins. Determination of the absorption and fluorescence spectra of the samples was done by spectrophotometer and spectrofluorometer.
(§2) For the 254/255-TtPFK-cpYFP obtained in Example 2 and the 254/255-TtPFK-I253G/Q254L/R255L/G256F-cpYFP-Y1P, 254/255-TtPFK-I253K/Q254L/R255L/G256F-cpYFP-Y1S and 254/256-TtPFK-I253Q/Q254L/G256V/G257L-cpYFP-Y1T/N246F optical probes obtained in Example 6, amino acid were mutated at positions R21, R25, V54, R55, V57, A58, N59, I60, I61, R155, G186, R212, G213, K214, K215, S216 and L320 in the phosphoenolpyruvate binding pocket, and at positions R72, R163, R172 and R246 in the ATP binding pocket to adjust the affinity of the phosphoenolpyruvate optical probe to phosphoenolpyruvate and the substrate specificity. The probes were linearized by reverse PCR, and the sequences of the mutation sites were introduced into the primers. The obtained PCR products were subjected to homologous recombination to obtain plasmids containing the above site mutations. The mutant plasmids were transformed into BL21 (DE3) for induced expression, and the mutant probe proteins were purified for the phosphoenolpyruvate response test. The detection signal of the fusion fluorescent protein containing 2 mM phosphoenolpyruvate was divided by the detection signal of the fusion fluorescent protein without phosphoenolpyruvate. […]

[2] = biological target: T2, Thermus thermophilus TtPFK optical probe 254/256-TtPFK-cpYFP variant, TtPFK S216Y/I253Q/Q254L/G256V/G257L, cpYFP Y1T/N246F (Thermus thermophilus, UniProt P21777, form not given/G256V/G257L/I253Q/Q254L/S216Y)
T2 construct: His-tag; made in house; host or cells: E. coli BL21 (DE3), pCDF vector
T2 sequence (P21777 other isoform, or with tags, fused parts or gaps S216Y, form open): as the sequence (P21777 other isoform, or with tags, fused parts or gaps, stated change not applied) above, with S216Y, F565L counted along it
Procedure: as §1, §2

[3] = biological target: T3, Thermus thermophilus TtPFK optical probe 254/256-TtPFK-cpYFP variant, TtPFK G213T/I253Q/Q254L/G256V/G257L, cpYFP Y1T/N246F (Thermus thermophilus, UniProt P21777, form not given/G213T/G256V/G257L/I253Q/Q254L)
T3 construct: the numbering corresponds to the full length of the phosphoenolpyruvate-sensitive polypeptide; His-tag; made in house; host or cells: E. coli BL21 (DE3)
T3 sequence (P21777 other isoform, or with tags, fused parts or gaps G213T, form open): as the sequence (P21777 other isoform, or with tags, fused parts or gaps, stated change not applied) above, with G213T, F565L counted along it
Procedure: as §1, §2

[4] = biological target: T4, Thermus thermophilus TtPFK optical probe 254/256-TtPFK-cpYFP variant, TtPFK K215E/I253Q/Q254L/G256V/G257L, cpYFP Y1T/N246F (Thermus thermophilus, UniProt P21777, form not given/G256V/G257L/I253Q/K215E/Q254L)
T4 construct: the numbering corresponds to the full length of the phosphoenolpyruvate-sensitive polypeptide; His-tag; made in house; host or cells: E. coli BL21 (DE3), pCDF vector
T4 sequence (P21777 other isoform, or with tags, fused parts or gaps K215E, form open): as the sequence (P21777 other isoform, or with tags, fused parts or gaps, stated change not applied) above, with K215E, F565L counted along it
Procedure: as §1, §2

[5] = biological target: T5, Thermus thermophilus TtPFK optical probe 254/255-TtPFK-cpYFP variant, TtPFK V54K/I253K/Q254L/R255L/G256F, cpYFP Y1S (Thermus thermophilus, UniProt P21777, form not given/G256F/I253K/Q254L/R255L/V54K)
T5 construct: the numbering corresponds to the full length of the phosphoenolpyruvate-sensitive polypeptide; His-tag; made in house; host or cells: E. coli BL21 (DE3)
T5 sequence (P21777 other isoform, or with tags, fused parts or gaps V54K, form open): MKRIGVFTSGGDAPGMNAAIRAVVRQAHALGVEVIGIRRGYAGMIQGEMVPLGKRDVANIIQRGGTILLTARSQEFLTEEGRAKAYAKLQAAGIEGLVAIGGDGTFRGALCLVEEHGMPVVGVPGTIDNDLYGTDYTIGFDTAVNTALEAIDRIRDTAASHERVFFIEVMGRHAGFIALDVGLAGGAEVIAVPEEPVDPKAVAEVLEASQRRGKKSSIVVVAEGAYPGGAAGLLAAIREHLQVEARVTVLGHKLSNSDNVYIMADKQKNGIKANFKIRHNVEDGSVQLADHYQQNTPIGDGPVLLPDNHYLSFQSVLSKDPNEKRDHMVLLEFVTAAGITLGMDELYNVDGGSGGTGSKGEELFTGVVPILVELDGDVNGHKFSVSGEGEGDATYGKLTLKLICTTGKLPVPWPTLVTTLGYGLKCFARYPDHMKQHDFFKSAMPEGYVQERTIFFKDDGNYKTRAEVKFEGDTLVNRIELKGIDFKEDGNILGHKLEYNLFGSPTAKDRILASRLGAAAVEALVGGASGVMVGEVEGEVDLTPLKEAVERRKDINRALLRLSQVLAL
Procedure: as §1, §2

[6] = biological target: T6, Thermus thermophilus TtPFK optical probe 254/256-TtPFK-cpYFP variant, TtPFK S216L/I253Q/Q254L/G256V/G257L, cpYFP Y1T/N246F (Thermus thermophilus, UniProt P21777, form not given/G256V/G257L/I253Q/Q254L/S216L)
T6 construct: the numbering corresponds to the full length of the phosphoenolpyruvate-sensitive polypeptide; His-tag; made in house; host or cells: E. coli BL21 (DE3), pCDF vector
T6 sequence (P21777 other isoform, or with tags, fused parts or gaps S216L, form open): as the sequence (P21777 other isoform, or with tags, fused parts or gaps, stated change not applied) above, with S216L, F565L counted along it
Procedure: as §1, §2

[7] = biological target: T7, Thermus thermophilus TtPFK optical probe 254/255-TtPFK-cpYFP variant, TtPFK N59H/I253G/Q254L/R255L/G256F, cpYFP Y1P (Thermus thermophilus, UniProt P21777, form not given/G256F/I253G/N59H/Q254L/R255L)
T7 construct: the numbering corresponds to the full length of the phosphoenolpyruvate-sensitive polypeptide; His-tag; made in house; host or cells: E. coli BL21 (DE3)
T7 sequence (P21777 other isoform, or with tags, fused parts or gaps N59H, form open): as the sequence (P21777 other isoform, or with tags, fused parts or gaps V54K, form open) above, with K54V, N59H, K253G, S255P counted along it
Procedure: as §1, §2

[8] = biological target: T8, Thermus thermophilus TtPFK optical probe 254/256-TtPFK-cpYFP variant, TtPFK R212M/I253Q/Q254L/G256V/G257L, cpYFP Y1T/N246F (Thermus thermophilus, UniProt P21777, form not given/G256V/G257L/I253Q/Q254L/R212M)
T8 construct: the numbering corresponds to the full length of the phosphoenolpyruvate-sensitive polypeptide; His-tag; made in house; host or cells: E. coli BL21 (DE3)
T8 sequence (P21777 other isoform, or with tags, fused parts or gaps R212M, form open): as the sequence (P21777 other isoform, or with tags, fused parts or gaps, stated change not applied) above, with R212M, F565L counted along it
Procedure: as §1, §2

C=C(OP(=O)(O)O)C(=O)O [phosphoenolpyruvate, Phosphoenolpyruvate]
Kd [1]: 1770 µM
Kd [2]: 2.36 µM
Kd [3]: 199 µM
Kd [4]: 249 µM
Kd [5]: 129 µM
Kd [6]: 1.39 µM
Kd [7]: 178 µM
Kd [8]: 714 µM
